Experimental data from patent US7892350B2, “Sacrificial agents for fly ash concrete” (Boral Material Technologies Inc., priority 2003, dated 2011).

Assays:
[1] = Adsorption/precipitation of SA or AEA in 10 wt % aqueous fly ash or cement slurries at pH 12.5; assay type: physicochemical; conditions: initial SA 3 mM
Procedure: Adsorption/Precipitation of Sacrificial Agents (SA) or Air Entrainment Agents (AEA) in 10 wt % Aqueous Fly Ash Slurries at pH 12.5:
(§1) The pH of the solutions were adjusted to 12.5 with NaOH.
Adsorption/Precipitation in FA or Cement Slurries: In this protocol, aqueous slurries containing 10 wt % FA or cement were prepared as described above, except that in this case, the cement was added directly into a solution of the SA or AEA in the following proportions: 3.0 g cement or FA, and 27 g of 3 mM sacrificial agent, or 27 g of 1050 mg/l AEA; the latter were prepared in the same way as in the precipitation test above. The residual (soluble) SA or AEA content in the solution was also determined by UV or COD.

[2] = Precipitation in slurry extract or leachate; assay type: physicochemical; conditions: pH 12.5, entries in parentheses
Procedure: as §1
Precipitation in slurry extract or leachate: To perform this test, FA or cement leachate were prepared in advance, by filtering two liters of a 10 wt % FA, or cement, slurry in 0.03N NaOH which had been left to stand under slow agitation for 30 min; 2.5 g of the filtrate solution was mixed with 22.5 g of the SA or AEA solution in a 50 ml polypropylene centrifuge tube; the latter was shaken vigorously in an orbital shaker (Eberbach Corporation) for 30 min at room temperature, centrifuged for 5 min and then the supernatant solution was filtered (0.45 μm). The SA or AEA content of the solution was determined using an Ultraviolet-Visible (UV) spectrometer or by COD (Chemical Oxygen Demand) measurement.
Entries in parentheses: % precipitation when reacted with solutions extracted from the fly ash slurries (Results in Table 5).

[3] = Paste air entrainment, Minimum air protocol
Procedure: Preparation of pastes: Pastes were prepared by pouring 400 g of cementitious powder in the 350-400 g of solution (water and additives) in a vessel (8.4 cm dia,×14.5 cm height) while gently stirring with a spatula; the exact quantity of water depends on the selected W/B ratio (see below); rapid hand mixing was continued for 1 minute, followed by intense stirring at 25° C. during 2 min using a hand-held mixer (BRAUN model MR400). The level of air entrained is dependent on the mode of utilisation of the mixer, namely the height of the mixer from the bottom of the vessel and the length of the mixing stroke; the following protocols were adopted.
Minimum air protocol: The BRAUN mixer is positioned at 1.0 inch from the bottom of the mixing vessel and the up-down motion of the mixer is limited to a 1.0 inch displacement; this provided ‘minimum air’ entrained air levels and is later referred to as ‘Minimum air protocol’ (Results reported in Table 6, col. 1 and Table 7).
Fluidity measurements: For all air entrainment measurements, the initial fluidity of the paste (without additives) was controlled using the ‘mini-slump’ procedure widely used for paste and grouts. In this protocol, a portion of the paste was transferred into the min-slump cone (a 2¼″ high, 1½″ bottom diameter, ¾″ top diameter cone); excess paste was skimmed-off with a straight; the cone was then raised and the spread diameter of the paste was recorded (average of two measurements). The fluidity is measured at 10 minutes after mixing. The paste is returned to the batch and reserved for subsequent AE measurements. The fluidity of the paste (without SA and AEA) is adjusted by changing the amount of water (water/cementitious ratio) which yields a spread diameter of 115±5 mm. The latter is monitored regularly.
Air entrainment measurements: For air entrainment measurements, a portion of the paste was transferred to overfill a Plexiglas cylinder (3¾ inches height, 2 inches interior diameter), which was then levelled flush to the top of the cylinder with a straight edge. The mass of the filled cylinder, minus the weight of the empty cylinder, is then recorded and used to calculate the amount of air according to the following formula: […]
This procedure was carried out at three times at 30 min. intervals (6, 36 and 66 min); the paste was let to stand at rest between measurements, and was stirred gently by hand for one minute prior to the subsequent air entrainment measurements.
Typical mixture compositions for air entrainment measurements in pastes containing a single additive using ‘Minimum air protocol’ (results shown in Table 6, col. 1): […]

[4] = Paste air entrainment, Maximum air protocol
Summary of the method: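 Pastes of 400 g cementitious powder in water plus additives, hand-mixed 1 min then mixer-stirred 2 min at 25 °C; water/binder ratio set so additive-free paste gives 115±5 mm mini-slump spread at 10 min. Air content calculated from mass of paste filling a fixed-volume cylinder at 6, 36 and 66 min, paste at rest between readings and hand-stirred 1 min beforehand.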

[5] = Air entrainment in fresh concrete (ASTM C 231-97)
Procedure: The sacrificial agents were added to the cementitious mixtures in several ways: • 1) mixing together with water and air entrainment agent solution • 2) premixed with the fly ash • 3) post-added into the fresh concrete which already contained the air entrainment agent.

OCCOc1ccccc1 [EGPE, Ethylene glycol phenyl ether]
Adsorption (wt % Adsorbed) ([1]; 10 wt % fly ash B1 (LOI 4.36%) slurry, Air 30/Air 40 0.105 wt %): 12 wt % | Adsorption (wt % Adsorbed) ([1]; 10 wt % fly ash C1, class C (LOI 1.62%) slurry, Air 30/Air 40 0.105 wt %): 12 wt % | Adsorption (wt % Adsorbed) ([1]; 10 wt % fly ash C2 (LOI 3.32%) slurry): 6 wt % | Adsorption (wt % Adsorbed) ([1]; 10 wt % fly ash M1 (LOI […]) slurry, Air 30/Air 40 0.105 wt %): 4 wt % | Adsorption (wt % Adsorbed) ([1]; 10 wt % fly ash M2 (LOI 5.34%) slurry, Air 30/Air 40 0.105 wt %): 14 wt % | Adsorption (wt % Adsorbed) ([1]; 10 wt % fly ash M3 (LOI 11.33%) slurry, Air 30/Air 40 0.105 wt %): 14 wt % | Adsorption (wt % Adsorbed) ([1]; 10 wt % fly ash N (LOI 0.30%) slurry): 1 wt % | Precipitation (wt % precipitated) ([2]; solution extracted from 10 wt % fly ash B1 (LOI 4.36%) slurry): 0 wt % | Precipitation (wt % precipitated) ([2]; solution extracted from 10 wt % fly ash C1, class C (LOI 1.62%) slurry): 0 wt % | Precipitation (wt % precipitated) ([2]; solution extracted from 10 wt % fly ash C2 (LOI 3.32%) slurry): 0 wt % | Precipitation (wt % precipitated) ([2]; solution extracted from 10 wt % fly ash M1 (LOI […]) slurry): 1 wt % | Precipitation (wt % precipitated) ([2]; solution extracted from 10 wt % fly ash M2 (LOI 5.34%) slurry): 0 wt % | Precipitation (wt % precipitated) ([2]; solution extracted from 10 wt % fly ash M3 (LOI 11.33%) slurry): 0 wt % | Precipitation (wt % precipitated) ([2]; solution extracted from 10 wt % fly ash N (LOI 0.30%) slurry): 0 wt % | Air entrained ([3]; 50:50 fly ash B1 (LOI 4.36%):PCA paste, 0.1 wt % Air 30 alone or with 0.05 wt % of the SA): 4 vol % | Air entrained ([3]; 50:50 fly ash C1 (LOI 1.62%):PCA paste, 0.1 wt % Air 30 alone or with 0.05 wt % of the SA): 5 vol % | Air entrained ([3]; 50:50 fly ash D (LOI […]):PCA paste, 0.1 wt % Air 30 alone or with 0.05 wt % of the SA): 5 vol % | Air entrained ([3]; 50:50 fly ash M1 (LOI […]):PCA paste, 0.1 wt % Air 30 alone or with 0.05 wt % of the SA): 5 vol % | Air entrained ([3]; 50:50 fly ash M2 (LOI 5.34%):PCA paste, 0.1 wt % Air 30 alone or with 0.05 wt % of the SA): 4 vol % | Air entrained ([3]; 50:50 fly ash M3 (LOI 11.33%):PCA paste, 0.1 wt % Air 30 alone or with 0.05 wt % of the SA): 4 vol % | Air entrained ([3]; 50:50 fly ash R (LOI […]):PCA paste, 0.1 wt % Air 30 alone or with 0.05 wt % of the SA): 5 vol % | Air entrained ([3]; PCA cement paste, 0.1% SA or AEA alone, Minimum air protocol): 0 vol % | Average of air entrained ([3]; over the fly ash:PCA pastes of Table 7, 0.1 wt % Air 30 alone or with 0.05 wt % of the SA): 4% | Air entrained at 66 min ([4]; 50:50 fly ash B1 (LOI 4.36%):PCA paste, Air 30 (0.0125%)/NS/X=1/4/4, X = the labelled SA): 4 vol % | Air entrained at 66 min ([4]; 50:50 fly ash B1 (LOI 4.36%):PCA paste, Air 30 (0.0125 wt %)/ND/X=1/4/4, X = the labelled SA): 14 vol % | Air entrained at 66 min ([4]; 50:50 fly ash C1 (LOI 1.62%):PCA paste, Air 30 (0.0125%)/NS/X=1/4/4, X = the labelled SA): 9 vol % | Air entrained at 66 min ([4]; 50:50 fly ash C1 (LOI 1.62%):PCA paste, Air 30 (0.0125 wt %)/ND/X=1/4/4, X = the labelled SA): 19 vol % | Air entrained at 66 min ([4]; 50:50 fly ash D (LOI […]):PCA paste, Air 30 (0.0125%)/NS/X=1/4/4, X = the labelled SA): 15 vol % | Air entrained at 66 min ([4]; 50:50 fly ash D (LOI […]):PCA paste, Air 30 (0.0125 wt %)/ND/X=1/4/4, X = the labelled SA): 22 vol % | Air entrained at 66 min ([4]; 50:50 fly ash M1 (LOI […]):PCA paste, Air 30 (0.0125%)/NS/X=1/4/4, X = the labelled SA): 11 vol % | Air entrained at 66 min ([4]; 50:50 fly ash M1 (LOI […]):PCA paste, Air 30 (0.0125 wt %)/ND/X=1/4/4, X = the labelled SA): 18 vol % | Air entrained at 66 min ([4]; 50:50 fly ash M2 (LOI 5.34%):PCA paste, Air 30 (0.0125%)/NS/X=1/4/4, X = the labelled SA): 3 vol % | Air entrained at 66 min ([4]; 50:50 fly ash M2 (LOI 5.34%):PCA paste, Air 30 (0.0125 wt %)/ND/X=1/4/4, X = the labelled SA): 11 vol % | Air entrained at 66 min ([4]; 50:50 fly ash M3 (LOI 11.33%):PCA paste, Air 30 (0.0125%)/NS/X=1/4/4, X = the labelled SA): 3 vol % | Air entrained at 66 min ([4]; 50:50 fly ash M3 (LOI 11.33%):PCA paste, Air 30 (0.0125 wt %)/ND/X=1/4/4, X = the labelled SA): 13 vol % | Air entrained at 66 min ([4]; 50:50 fly ash R (LOI […]):PCA paste, Air 30 (0.0125%)/NS/X=1/4/4, X = the labelled SA): 11 vol % | Air entrained at 66 min ([4]; 50:50 fly ash R (LOI […]):PCA paste, Air 30 (0.0125 wt %)/ND/X=1/4/4, X = the labelled SA): 18 vol % | Air entrained ([4]; PCA cement paste, 0.0125% SA or AEA alone, Maximum air protocol): 1 vol % | Air entrained at 66 min ([4]; PCA paste, no fly ash, Air 30 (0.0125 wt %)/ND/X=1/4/4, X = the labelled SA): 23 vol % | air entrained (average) ([4]; fly ash:cement pastes, SA added at four (4) times the fixed Air 30 dosage (0.0125%)): 7% | Average of air entrained at 66 min ([4]; over the fly ash:PCA pastes of Table 9, Air 30 (0.0125 wt %)/ND/X=1/4/4, X = the labelled SA): 17% | Air ([5]; 25% B1 fly ash (LOI 1.9%):PCA concrete, Air 40 0.003 % CM + EGPE 0.100 % CM): 5.1% | Air ([5]; 25% B1 fly ash (LOI 1.9%):PCA concrete, Air 40 0.006 % CM + EGPE 0.100 % CM): 6.2% | Air ([5]; 25% B1 fly ash (LOI 1.9%):PCA concrete, Air 40 0.009 % CM + EGPE 0.100 % CM): 7.4% | Air ([5]; Air 30 0.006 % CM, EGPE 0.100 % CM added during batching, PCA cement, B1 fly ash 25 %, LOI […]): 11.4% | Air ([5]; Air 30 0.006 % CM, EGPE 0.100 % CM premixed with fly ash, PCA cement, B1 fly ash 25 %, LOI […]): 10.0% | Air ([5]; Air 40 0.003 % CM, EGPE 0.100 % CM added during batching, PCA cement, B1 fly ash 25 %, LOI […]): 2.7% | Air ([5]; Air 40 0.003 % CM, EGPE 0.100 % CM premixed with fly ash, PCA cement, B1 fly ash 25 %, LOI […]): 2.9% | Air ([5]; Air 40 0.008 % CM, EGPE 0.100 % CM added during batching, PCA cement, B1 fly ash 25 %, LOI […]): 4.9% | Air ([5]; Air 40 0.008 % CM, EGPE 0.100 % CM premixed with fly ash, PCA cement, B1 fly ash 25 %, LOI […]): 4.7% | % air, levelling-off ([5]; B1 fly ash ([…] LOI):PCA concrete, Air 40 0.003 wt %, increasing dosages of EGPE): 6-8 vol % | % air ([5]; B1 fly ash ([…] LOI):PCA concrete, EGPE 0.1 wt % with increasing Air 40 dosage): approx 5% | Air ([5]; PCA cement concrete, no fly ash, Air 40 0.003 % CM + EGPE 0.050 % CM): 6.5% | Air ([5]; PCA cement concrete, no fly ash, Air 40 0.003 % CM + EGPE 0.100 % CM): 6.5% | Air ([5]; PCA cement concrete, no fly ash, Air 40 0.003 % CM + EGPE 0.200 % CM): 6.2% | Air ([5]; PCA cement concrete, no fly ash, Air 40 0.006 % CM + EGPE 0.050 % CM): 8.1% | Air ([5]; PCA cement concrete, no fly ash, Air 40 0.006 % CM + EGPE 0.100 % CM): 8.3% | Air ([5]; PCA cement concrete, no fly ash, Air 40 0.006 % CM + EGPE 0.200 % CM): 8.0% | Air ([5]; PCC cement concrete, no fly ash, no Air 40, EGPE alone 0.010 % CM): 1.9% | Air ([5]; PCC cement concrete, no fly ash, no Air 40, EGPE alone 0.030 % CM): 2.0% | Air ([5]; PCC cement concrete, no fly ash, no Air 40, EGPE alone 0.050 % CM): 2.0% | Air ([5]; PCC cement concrete, no fly ash, no Air 40, EGPE alone 0.100 % CM): 2.1% | increase in air entrained above the control values ([5]; cement-only concrete without air entrainment agents, various dosages): about 1%
